Experimental data reported in patent US20200046731A1, “BI[…] STATE (17- β)-HYDROXY-4-ANDROSTEN-3-ONE ESTERS” (Lipocine Inc., priority 2014, published 2020).

Assay: Serum testosterone responder analysis after oral dosing (Table 3)
Type: in vivo, human
Protocol: Some of the dosage forms of compositions described herein comprising or prepared from (17-β)-3-Oxoandrost-4-en-17-yl tridecanoate were administered to human subjects as a single dose of the esters to subjects. Serial blood samples were drawn at predetermined time (e.g., t=0, 12, 24, etc.) and analyzed for testosterone concentration using a validated HPLC-MS/MS analytical method. The Cmax, Cavg t1-t2, Tmax and AUCt1-t2 are calculated for testosterone in the serum of the subjects. Pharmacokinetic and statistical analyses are performed on the data obtained from the subjects. The pharmacokinetic parameters are defined as follows: • AUCt1-t2: The area under the serum concentration versus time curve, from time t1 (in hours) to time t2 (in hours) measurable concentration of the administered drug, as calculated by the linear trapezoidal method. […] This represents the average serum testosterone level over a period starting from time 0 (zero) hours to […] post-administration of dose. It should also be noted that Cavg t0-t24 is also referred to as simply “Cavg” in this invention. • Cavg t0-t12: The average serum concentration of testosterone obtained by dividing the AUCt0-t12 value by 12. This represents the average serum testosterone level over a period starting from time 0 (zero) hours to […] post-administration of dose. • Cavg t12-24: The average serum concentration of testosterone obtained by dividing the AUCt12-t24 value by 12. This represents the average serum testosterone level over the second half of the 24-hours post-administration of dose period; i.e., from a period starting from time 12 hours to time 24 hours post-administration of dose.

[1] = starting dose 100 (±50) mg T equivalent QD or BID
[2] = starting dose 300 (±50) mg T equivalent QD
[3] = starting dose 350 (±100) mg T equivalent BID
[4] = starting dose 1000 (±200) mg T equivalent QD or BID

**Q.** Which results are given for CCCCCCCCCCCCC(=O)O[C@H]1CC[C@H]2[C@@H]3CCC4=CC(=O)CC[C@]4(C)[C@H]3CC[C@]12C [(17-β)-3-Oxoandrost-4-en-17-yl tridecanoate]?
**A.** % Responders with Cave t0-t24 (ng/dL) 300-1140 [1]: 50-65%; % Responders with Cmax (ng/dL) 1800-2500 [1]: 0-5%; % Responders with Cmax (ng/dL) >2500 [1]: 0-1%; % Responders with Cmax (ng/dL) ≤1500 [1]: 100%; % Responders with Cmax (ng/dL) 1800-2500 [2]: 0-5%; % Responders with Cmax (ng/dL) >2500 [2]: 0-1%; % Responders with Cmax (ng/dL) ≤1500 [2]: 100%; % Responders with Cave t0-t24 (ng/dL) 300-1140 (starting dose 300 (±50) mg T equivalent QD, 12-20% EAPI formulation): 100%; % Responders with Cave t0-t24 (ng/dL) 300-1140 [3]: 100%; % Responders with Cmax (ng/dL) 1800-2500 [3]: 0-5%; % Responders with Cmax (ng/dL) >2500 [3]: 0-1%; % Responders with Cmax (ng/dL) ≤1500 [3]: 100%; % Responders with Cave t0-t24 (ng/dL) 300-1140 [4]: 100%; % Responders with Cmax (ng/dL) 1800-2500 [4]: 20-30%; % Responders with Cmax (ng/dL) >2500 [4]: 60-80%; % Responders with Cmax (ng/dL) ≤1500 [4]: 0%
